The source of these data is PubChem BioAssay (NCI).

Molecules are shown by their SMILES.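 Growth conditions: 96-well plates. Treatment: test compound, 48 hours, 5 concentrations. Analysis: linear interpolation between bracketing concentrations; unreached endpoints set to highest concentration. TGI denotes the concentration required for complete inhibition of growth.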

Among the test systems are A498 renal; EKVX NSCLC; HT29 colon; K-562 leukemia; LOX IMVI melanoma; MDA-MB-231 breast; MDA-N; OVCAR-8 ovarian; UACC-62 melanoma.
Common to all, as to assay: DTP human tumour cell line panel, 48 h

As to `CC(C)C1OC23CCCCC2C(C#N)(C#N)C1(C#N)C(=N)O3` (stereo not given), the TGI (commonly the concentration giving total growth inhibition) in the assay with A498 renal was 60 µM; with EKVX NSCLC it was 77.7 µM; in the assay on HT29 colon it was 43.8 µM; in the assay with K-562 leukemia, over 100 µM; with LOX IMVI melanoma it was 54 µM; in the assay with MDA-MB-231 breast, 39.7 µM. The TGI was 32.7 µM with MDA-N, 49.8 µM in the assay with OVCAR-8 ovarian and 58 µM in the assay on UACC-62 melanoma.
Take `S=C(c1c[nH]c2ccccc12)N1CCOCC1`: the TGI with A498 renal, in the assay on EKVX NSCLC, in the assay with HT29 colon, with K-562 leukemia, with LOX IMVI melanoma and with MDA-MB-231 breast was over 100 µM throughout. In addition, the TGI with MDA-N, with OVCAR-8 ovarian and with UACC-62 melanoma was over 100 µM each time.
For `CC(C)(C)c1cc(C(P(=O)(c2ccccc2)c2ccccc2)P(=O)(c2ccccc2)c2ccccc2)cc(C(C)(C)C)c1O`, the total growth inhibition concentration (TGI) in the assay with A498 renal was 5.08 µM; in the assay with EKVX NSCLC it was over 10 µM; in the assay with HT29 colon, 4.39 µM; in the assay with K-562 leukemia, 9.93 µM; in the assay with LOX IMVI melanoma, 4.04 µM; in the assay with MDA-MB-231 breast it was 5.12 µM. Further, the TGI in the assay with MDA-N worked out at 3.93 µM; in the assay on OVCAR-8 ovarian it was 8.95 µM; with UACC-62 melanoma, 3.32 µM.
As to `CNn1c(-c2ccccc2)n[nH]c1=O`, the TGI in the assay on A498 renal, with EKVX NSCLC, in the assay on HT29 colon, in the assay on K-562 leukemia, in the assay on LOX IMVI melanoma and with MDA-MB-231 breast was over 100 µM in each case. Moreover, the TGI in the assay with MDA-N, in the assay with OVCAR-8 ovarian and in the assay on UACC-62 melanoma was over 100 µM each time.
As to `CN1C(=O)N/C(=C\c2ccc(S(=O)(=O)NN)cc2)C1=O`, the TGI in the assay on A498 renal, in the assay on EKVX NSCLC, with HT29 colon, in the assay with K-562 leukemia, in the assay with LOX IMVI melanoma and with MDA-MB-231 breast was over 100 µM in each case. The TGI with MDA-N, in the assay with OVCAR-8 ovarian and in the assay with UACC-62 melanoma was over 100 µM throughout.
Turning to `Nc1nc(N)c2[nH]c(CNc3ccc(C(=O)O)cc3)nc2n1`, the concentration for total growth inhibition (TGI) in the assay with A498 renal, with EKVX NSCLC, in the assay with HT29 colon, with K-562 leukemia, in the assay on LOX IMVI melanoma and in the assay with MDA-MB-231 breast was over 100 µM throughout. The TGI in the assay on MDA-N, in the assay with OVCAR-8 ovarian and in the assay on UACC-62 melanoma was over 100 µM in each case.
As to `O=C(CC(=O)Nc1cccc(C(=O)O)c1)Nc1cccc(C(=O)O)c1`, the concentration for total growth inhibition (TGI) in the assay on A498 renal, in the assay on EKVX NSCLC, in the assay on HT29 colon, in the assay with K-562 leukemia, in the assay with LOX IMVI melanoma and in the assay with MDA-MB-231 breast was over 100 µM throughout. The TGI with MDA-N, with OVCAR-8 ovarian and in the assay with UACC-62 melanoma was over 100 µM in each case.
As to `Cc1ccc(S(=O)(=O)N/N=C/C(=C/c2ccc(Cl)cc2)CC(/C=N/NS(=O)(=O)c2ccc(C)cc2)=C\c2ccc(Cl)cc2)cc1`, the TGI in the assay on A498 renal was determined as 29 µM; in the assay on EKVX NSCLC, 38.4 µM; in the assay with HT29 colon, 24.1 µM; in the assay with K-562 leukemia, 8.19 µM; in the assay with LOX IMVI melanoma it was 3.73 µM; in the assay with MDA-MB-231 breast it was 24.8 µM. In addition, the TGI was found to be 26.7 µM in the assay on MDA-N, 12.8 µM in the assay with OVCAR-8 ovarian and 27.4 µM in the assay with UACC-62 melanoma.
Regarding `O=C(O)c1nc(-c2ccccc2)ncc1-c1nnnn1-c1ccccc1`, the TGI with A498 renal, in the assay with EKVX NSCLC, in the assay on HT29 colon, in the assay on K-562 leukemia, with LOX IMVI melanoma and with MDA-MB-231 breast was over 100 µM throughout. In addition, the TGI in the assay with MDA-N, in the assay on OVCAR-8 ovarian and in the assay with UACC-62 melanoma was over 100 µM in each case.
In the case of `CCCCCCCCCCCCCCCCCCNc1ccn(C2OC(COP(=O)(O)OCC3OC(n4cc(C)c(=O)[nH]c4=O)CC3O)C(O)C2O)c(=O)n1` (stereo not given), the TGI in the assay on A498 renal was 58.3 µM; with EKVX NSCLC, 34.9 µM; with HT29 colon it was 30.4 µM; with K-562 leukemia it was 50.2 µM; with LOX IMVI melanoma it was 31.9 µM; in the assay on MDA-MB-231 breast, 31.1 µM. The values for the TGI in the assay on MDA-N, with OVCAR-8 ovarian and with UACC-62 melanoma were 33.1 µM, 31.6 µM and 33.8 µM, respectively.
`c1ccc2sc(C3(N4CCCC4)CCCCCC3)cc2c1`: the TGI came out at 32.5 µM with A498 renal; 33 µM in the assay on EKVX NSCLC; 19.3 µM in the assay on HT29 colon; 38.5 µM in the assay on K-562 leukemia; 33.2 µM with LOX IMVI melanoma; 31 µM in the assay on MDA-MB-231 breast. For the same compound, the TGI stood at 32.1 µM in the assay on MDA-N, 37 µM in the assay with OVCAR-8 ovarian and 31.1 µM in the assay with UACC-62 melanoma.
As to `COC(=O)C(C)(NC(=O)C(CC(=O)OC(C)(C)C)NC(=O)OC(C)(C)C)c1ccccc1` (stereo not given), the total growth inhibition concentration (TGI) with A498 renal, in the assay with EKVX NSCLC, in the assay on HT29 colon, with K-562 leukemia, with LOX IMVI melanoma and in the assay on MDA-MB-231 breast was over 100 µM each time. Moreover, the concentration for total growth inhibition (TGI) in the assay with MDA-N, in the assay on OVCAR-8 ovarian and in the assay on UACC-62 melanoma was over 100 µM in each case.
As to `C=C1CC(c2ccc(OCCCN3C(=O)c4ccccc4C3=O)c(OC)c2)OC1=O` (stereo not given), the concentration for total growth inhibition (TGI) with A498 renal was 6.83 µM; with EKVX NSCLC, 30.6 µM; in the assay with HT29 colon, 13.3 µM; with K-562 leukemia, 2.68 µM; with LOX IMVI melanoma, 4.53 µM; in the assay on MDA-MB-231 breast, 30.5 µM. Moreover, the concentration for total growth inhibition (TGI) in the assay with MDA-N was 16.4 µM; with OVCAR-8 ovarian it was 15.1 µM; with UACC-62 melanoma it was 10.2 µM.
Consider `O=C(O)/C=N\Nc1nc2ccccc2[nH]1`, for which the TGI with A498 renal, in the assay with EKVX NSCLC, in the assay on HT29 colon, with K-562 leukemia, with LOX IMVI melanoma and in the assay on MDA-MB-231 breast was over 100 µM each time. Further, the TGI in the assay on MDA-N, in the assay with OVCAR-8 ovarian and in the assay on UACC-62 melanoma was over 100 µM in each case.
For the compound `COc1ccc2nc3ccc(OC)cc3c(S(=O)CCCl)c2c1` (stereo not given), the TGI in the assay on A498 renal is 34 µM; with EKVX NSCLC it was 25.6 µM; with HT29 colon, 4.39 µM; in the assay on K-562 leukemia, over 23.6 µM; with LOX IMVI melanoma, 6.81 µM; with MDA-MB-231 breast it was 11.8 µM. For the same compound, the TGI in the assay with MDA-N amounted to 7.58 µM; in the assay with OVCAR-8 ovarian, 9.2 µM; in the assay on UACC-62 melanoma, 32.1 µM.
